Several values for one entry are separate records, joined by “and”; a condition that tells them apart may be missing. Equal entries are not always repeated. Where two headings read alike, the source gives them in different places.
Columns and labels:
[1] = molecular target: T1, rat adrenergic α1B receptor (Rattus norvegicus, UniProt P15823); assay: Radioligand binding, adrenergic α1B ([3H]Prazosin); settings: [3H]Prazosin
T1 construct: rat adrenergic α1B receptor obtained from Wistar Rat liver; from tissue; host or cells: Wistar rat liver
T1 sequence (P15823 1-515): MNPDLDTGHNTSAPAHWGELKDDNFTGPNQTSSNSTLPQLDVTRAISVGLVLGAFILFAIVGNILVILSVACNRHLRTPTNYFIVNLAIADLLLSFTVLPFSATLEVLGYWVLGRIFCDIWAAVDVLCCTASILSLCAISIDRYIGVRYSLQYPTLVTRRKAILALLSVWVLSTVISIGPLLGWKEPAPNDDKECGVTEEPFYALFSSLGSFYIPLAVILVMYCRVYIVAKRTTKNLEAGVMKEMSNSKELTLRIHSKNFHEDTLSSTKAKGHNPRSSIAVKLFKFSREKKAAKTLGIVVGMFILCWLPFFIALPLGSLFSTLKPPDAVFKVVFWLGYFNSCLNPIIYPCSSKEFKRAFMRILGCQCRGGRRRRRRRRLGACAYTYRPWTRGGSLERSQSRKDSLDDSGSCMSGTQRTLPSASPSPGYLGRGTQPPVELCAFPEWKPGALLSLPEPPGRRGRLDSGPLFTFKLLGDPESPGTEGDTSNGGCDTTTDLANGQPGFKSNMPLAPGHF
Procedure, shortened: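 Incubation ran 60 min at 25 °C in Tris-HCl buffer (50 mM, pH 7.4, 0.5 mM EDTA) with Wistar rat liver α1B receptor. 10 μM phentolamine set non-specific binding.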

[2] = molecular target: T2, human recombinant adrenergic α2A receptor (Homo sapiens, UniProt P08913); assay: Radioligand binding, adrenergic α2A ([3H]MK-912); settings: [3H]MK-912
T2 construct: expressed in transfected cells; host or cells: insect Sf9 cells
T2 sequence (P08913 1-465): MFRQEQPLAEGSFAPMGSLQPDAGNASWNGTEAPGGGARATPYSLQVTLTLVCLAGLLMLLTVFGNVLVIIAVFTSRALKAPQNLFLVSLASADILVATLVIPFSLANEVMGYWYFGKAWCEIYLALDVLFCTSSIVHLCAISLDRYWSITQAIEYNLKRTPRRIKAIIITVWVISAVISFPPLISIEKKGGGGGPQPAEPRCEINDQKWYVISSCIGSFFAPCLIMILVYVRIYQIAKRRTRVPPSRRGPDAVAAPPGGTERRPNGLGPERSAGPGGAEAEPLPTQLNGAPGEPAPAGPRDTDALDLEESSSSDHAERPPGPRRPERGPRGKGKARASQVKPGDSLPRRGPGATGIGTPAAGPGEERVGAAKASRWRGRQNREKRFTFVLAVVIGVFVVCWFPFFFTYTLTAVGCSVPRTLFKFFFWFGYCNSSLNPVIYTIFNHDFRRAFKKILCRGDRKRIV
Procedure, shortened: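 In 50 mM Tris-HCl (pH 7.4) containing 12.5 mM MgCl2 and 2 mM EDTA, Sf9-expressed receptor was exposed to test compound plus 1 nM [3H]MK-912 at 25 °C for 60 min. Specific binding, corrected using 10 μM WB-4101, was quantified by filtration and counting and expressed as percent inhibition.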

[3] = molecular target: T3, human recombinant adrenergic α1D receptor (Homo sapiens, UniProt P25100); assay: Radioligand binding, adrenergic α1D ([3H]Prazosin); settings: [3H]Prazosin
T3 construct: expressed in transfected cells; host or cells: HEK-293
T3 sequence (P25100 1-572): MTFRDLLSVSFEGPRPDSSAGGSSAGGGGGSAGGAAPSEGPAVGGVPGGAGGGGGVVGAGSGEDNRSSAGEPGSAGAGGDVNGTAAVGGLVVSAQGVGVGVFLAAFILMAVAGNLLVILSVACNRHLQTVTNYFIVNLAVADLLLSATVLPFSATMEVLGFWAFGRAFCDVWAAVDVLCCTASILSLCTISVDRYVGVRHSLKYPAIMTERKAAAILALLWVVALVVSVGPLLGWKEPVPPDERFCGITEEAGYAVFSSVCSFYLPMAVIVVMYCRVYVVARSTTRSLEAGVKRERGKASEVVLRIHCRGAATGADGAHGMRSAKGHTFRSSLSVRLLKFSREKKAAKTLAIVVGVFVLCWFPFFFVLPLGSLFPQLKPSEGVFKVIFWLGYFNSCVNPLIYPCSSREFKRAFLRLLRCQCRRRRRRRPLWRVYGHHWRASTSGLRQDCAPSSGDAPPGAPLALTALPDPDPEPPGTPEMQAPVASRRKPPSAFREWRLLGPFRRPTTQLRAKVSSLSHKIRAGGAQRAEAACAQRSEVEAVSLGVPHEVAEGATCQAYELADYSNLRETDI
Description: Compounds were incubated with 0.6 nM [3H]Prazosin for 60 min at 25° C. Non-specific binding was estimated in the presence of 10 μM phentolamine. Receptor proteins were filtered and washed, the filters were then counted to determine [3H]Prazosin specifically bound. […] Biochemical assay results are presented as the percent inhibition of specific binding in Table B1.

[4] = molecular target: T4, human recombinant adrenergic α2B receptor (Homo sapiens, UniProt P18089); assay: Radioligand binding, adrenergic α2B ([3H]Rauwolscine)
T4 construct: expressed in transfected cells; host or cells: CHO-K1
T4 sequence (P18089 1-450): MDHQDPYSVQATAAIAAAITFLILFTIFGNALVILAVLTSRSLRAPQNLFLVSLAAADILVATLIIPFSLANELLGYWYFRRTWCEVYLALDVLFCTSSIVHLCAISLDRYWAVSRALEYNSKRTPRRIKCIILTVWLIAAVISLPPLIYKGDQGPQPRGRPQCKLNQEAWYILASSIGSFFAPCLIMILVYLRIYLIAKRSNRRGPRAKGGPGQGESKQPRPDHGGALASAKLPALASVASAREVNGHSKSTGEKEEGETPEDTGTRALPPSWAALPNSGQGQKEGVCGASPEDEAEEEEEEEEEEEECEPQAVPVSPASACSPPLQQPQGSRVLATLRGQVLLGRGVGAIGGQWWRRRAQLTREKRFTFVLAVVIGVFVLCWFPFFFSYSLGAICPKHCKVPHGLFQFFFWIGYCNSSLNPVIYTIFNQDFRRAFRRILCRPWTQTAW
Procedure, shortened: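 Membranes from CHO-K1 cells expressing human recombinant α2B, in 50 mM Tris-HCl pH 7.4, 12.5 mM MgCl2, 1 mM EDTA, 0.2% BSA, incubated with compound and 2.5 nM [3H]Rauwolscine, 60 min, 25 °C.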

[5] = compound at 0.1 μM, repeat assays, each datapoint shown, read-out: Percentage inhibition of ligand binding, Adrenergic α1B
[6] = compound at 0.1 μM, repeat assays, each datapoint shown, read-out: Percentage inhibition of ligand binding, Adrenergic α2A
[7] = compound at 0.1 μM, repeat assays, each datapoint shown, read-out: Percentage inhibition of ligand binding, Adrenergic α1D
[8] = compound at 0.1 μM, [3H]Rauwolscine, repeat assays, each datapoint shown, read-out: Percentage inhibition of ligand binding, Adrenergic α2B
[9] = compound at 0.1 μM, repeat assays, each datapoint shown, 0.1 µM
[10] = read-out: Percentage inhibition of ligand binding, Adrenergic α1B (0.1 μM), compound at 0.1 μM, repeat datapoints each shown
[11] = read-out: Percentage inhibition of ligand binding, Adrenergic α2A (0.1 μM), compound at 0.1 μM, repeat datapoints each shown
[12] = read-out: Percentage inhibition of ligand binding, Adrenergic α1D (0.1 μM), compound at 0.1 μM, repeat datapoints each shown
[13] = read-out: Percentage inhibition of ligand binding, Adrenergic α2B (0.1 μM), compound at 0.1 μM, [3H]Rauwolscine, repeat datapoints each shown
[14] = compound at 0.1 μM, repeat datapoints each shown, 0.1 µM

| inhibition at 0.1 µM [1, 10] [%] | inhibition at 0.1 µM [2, 11] [%] | inhibition at 0.1 µM [3, 12] [%] | inhibition at 0.1 µM [4, 13] [%] | Structure (SMILES) | other results |
| --- | --- | --- | --- | --- | --- |
| – | – | 6 | 87 | Cc1ccc(C(C)(O)Cn2c3c(c4cc(Cl)ccc42)CN(C)CC3)cn1 (stereo not drawn) [compound 93] | Percentage inhibition of ligand binding, Adrenergic α1B (0.1 μM) [1, 14]: 25%; Percentage inhibition of ligand binding, Adrenergic α2A (0.1 μM) [2, 14]: 21% |
| 40 | 11 | 10 | 66 | Cc1ccc2c(c1)c1c(n2CC(=O)c2ccc(F)cc2)CCN(C)C1 [compound 94] | – |
| 40 | 21 | 21 | 77 | Cc1ccc2c(c1)c1c(n2CC(C)(F)c2ccncc2)CCN(C)C1 (stereo not drawn) [compound 102] | – |
| 57 | 14 | 36 | 68 | Cc1ccc2c(c1)c1c(n2/C=C(\F)c2ccncc2)CCN(C)C1 [compound 105] | – |
| 56 | 10 | 63 | 85 | CNC(=O)c1cccc(/C(C)=C/n2c3c(c4cc(C)ccc42)CN(C)CC3)c1 [compound 107] | – |
| 42 | 20 | 21 | 88 | C/C(=C\n1c2c(c3cc(C)ccc31)CN(C)CC2)c1ccnn1C [compound 108] | – |

The next lines start with the compound.

| Structure (SMILES) | inhibition at 0.1 µM [1, 10] [%] | inhibition at 0.1 µM [2, 11] [%] | inhibition at 0.1 µM [3, 12] [%] | inhibition at 0.1 µM [4, 13] [%] | other results |
| --- | --- | --- | --- | --- | --- |
| Cc1ccc2c(c1)c1c(n2CCc2ccccn2)CCN(C)C1 [compound 84] | – | – | – | – | inhibition at 0.1 µM [1, 5]: 69%; inhibition at 0.1 µM [2, 6]: 27%; inhibition at 0.1 µM [3, 7]: 36%; inhibition at 0.1 µM [4, 8]: 84% |
| Cc1ccc2c(c1)c1c(n2CCc2ccc(C(F)(F)F)nc2)CCN(C)C1 [compound 86] | – | – | – | – | inhibition at 0.1 µM [1, 5]: 62%; inhibition at 0.1 µM [2, 6]: 27%; inhibition at 0.1 µM [3, 7]: 62%; inhibition at 0.1 µM [4, 8]: 77% |
| CN1CCc2c(c3cc(Cl)ccc3n2CCC(=O)OCC2CCCCC2)C1 [compound 87] | – | – | – | – | inhibition at 0.1 µM [1, 5]: 5%; inhibition at 0.1 µM [2, 6]: 14%; inhibition at 0.1 µM [3, 7]: 24%; inhibition at 0.1 µM [4, 8]: 66% |
| CN1CCc2c(c3cc(Cl)ccc3n2CCC(=O)OC2CCCC2)C1 [compound 88] | – | – | – | – | inhibition at 0.1 µM [1, 5]: 10%; inhibition at 0.1 µM [2, 6]: 2%; inhibition at 0.1 µM [3, 7]: 36%; inhibition at 0.1 µM [4, 8]: 90% |
| CCc1ccc(CCn2c3c(c4cc(C)ccc42)CN(C)CC3)cn1 [compound 89] | – | – | – | – | inhibition at 0.1 µM [1, 5]: 79%; inhibition at 0.1 µM [2, 6]: 23%; inhibition at 0.1 µM [3, 7]: 68%; inhibition at 0.03 µM ([4]; compound at 0.03 μM, [3H]Rauwolscine, repeat assays, each datapoint shown, read-out: Percentage inhibition of ligand binding, Adrenergic α2B): 25%; Percentage inhibition of ligand binding, Adrenergic α2B ([4]; compound at 0.1 μM, [3H]Rauwolscine, repeat assays, each datapoint shown, 0.1 µM): 57% and 79%; Ki ([4]; read-out: Ki α2B): 32 nM |
| Cc1ccc2c(c1)c1c(n2CC(C)(O)c2ccc(F)cc2)CCN(C)C1 (stereo not drawn) [compound 90] | – | – | – | – | Percentage inhibition of ligand binding, Adrenergic α1B [1, 9]: 57%; Percentage inhibition of ligand binding, Adrenergic α2A [2, 9]: 22%; inhibition at 0.1 µM [3, 7]: 20%; inhibition at 0.1 µM [4, 8]: 91% |
| Cc1ccc2c(c1)c1c(n2CCc2cncc(Cl)c2)CCN(C)CC1 [compound 92] | 77 | 30 | 46 | 77 | – |
| Cc1ccc(C#Cn2c3c(c4cc(Cl)ccc42)C2CCC(C3)N2C)cn1 (stereo not drawn) [compound 95] | 52 | 9 | 29 | 105 | – |
| C/C(=C\n1c2c(c3cc(C)ccc31)CCN(C)C2C)c1ccccc1F (stereo not drawn) [compound 96] | 25 | 29 | 3 | 71 | – |
| C/C(=C\n1c2c(c3cc(Cl)ccc31)C1CCC(C2)N1C)c1cccnc1 (stereo not drawn) [compound 97] | 3 | -12 | -7 | 88 | – |
| C/C(=C\n1c2c(c3cc(C)ccc31)CCN(C)CC2)c1ccncc1 [compound 99] | 69 | 29 | 34 | 85 | – |
| COc1ccc2c(c1)c1c(n2/C=C(/C)c2ccncc2)CCN(C)C1 [compound 100] | 73 | 20 | 47 | 72 | – |
| C/C(=C\n1c2c(c3cc(C)ccc31)CNCC2)c1ccncc1 [compound 103] | 49 | 19 | 20 | 80 | – |
| C/C(=C\n1c2c(c3cc(C)ccc31)CCN(C)CC2)c1ccncn1 [compound 106] | 65 | 6 | 45 | 79 | – |
| C/C(=C\n1c2c(c3cc(C)ccc31)CN(C)CC2)c1cnn(C)c1 [compound 109] | 13 | 25 | 21 | 69 | – |
| C/C(=C\n1c2c(c3cc(C)ccc31)CN(C)CC2)c1c(C)noc1C [compound 110] | 5 | 27 | 35 | 62 | – |

Source: patent US8791132B2, “Compounds and methods for treatment of hypertension” (Medivation Technologies, Inc., priority 2011, dated 2014)
